Source: US10174036B2, “Substituted pyrazoles as JAK inhibitors” (WUXI FORTUNE PHARMACEUTICAL CO., LTD, priority 2015, dated 2019)
Like-named read-outs stand apart in the source and are kept apart here.

Columns and labels:
Assay type in all cases: biochemical
JAK2 = molecular target: T1, JAK2 (Homo sapiens, UniProt O60674); test: Test for in vitro activity of JAK2 kinase (LANCE Ultra ULight-JAK-1 peptide)
T1 construct: purchased Life technology
Description: (§1) Test for In Vitro Activity of Jak1, Jak2, and Jak3 Kinase
(§2) Recombinant human […] of JAK1, JAK2 and JAK3 were purchased from Life technology. LANCE Ultra ULight™-JAK-1 (Tyr1023) peptide and LANCE Eu-W1024 Anti-phosphotyrosine (PT66) were purchased from PerkinElmer. Multimode ELISA, Envison(PerkinElmer) reader was used.
The reaction was carried out at room temperature for 60 min and the reaction system was 10 ul.
(§3) Determination for Reaction
(§4) 10 ul detection reagent was added to reaction plate, wherein the final concentration of LANCE Eu-W1024 Anti-phosphotyrosine (PT66) was 2 nM, the final concentration of EDTA was […], incubated at room temperature for 60 min, with Envison reader.
(§5) The reading was converted to inhibition ratio (%) by the following formula: the inhibition ratio (%)=([…])/(Max−Min)×100%.

JAK1 = molecular target: T2, JAK1 (Homo sapiens, UniProt P23458); test: Test for in vitro activity of JAK1 kinase (LANCE Ultra ULight-JAK-1 peptide); settings: selectivity ratio JAK1 versus JAK2; class symbol
T2 construct: purchased Life technology
T2 sequence (P23458 whole entry): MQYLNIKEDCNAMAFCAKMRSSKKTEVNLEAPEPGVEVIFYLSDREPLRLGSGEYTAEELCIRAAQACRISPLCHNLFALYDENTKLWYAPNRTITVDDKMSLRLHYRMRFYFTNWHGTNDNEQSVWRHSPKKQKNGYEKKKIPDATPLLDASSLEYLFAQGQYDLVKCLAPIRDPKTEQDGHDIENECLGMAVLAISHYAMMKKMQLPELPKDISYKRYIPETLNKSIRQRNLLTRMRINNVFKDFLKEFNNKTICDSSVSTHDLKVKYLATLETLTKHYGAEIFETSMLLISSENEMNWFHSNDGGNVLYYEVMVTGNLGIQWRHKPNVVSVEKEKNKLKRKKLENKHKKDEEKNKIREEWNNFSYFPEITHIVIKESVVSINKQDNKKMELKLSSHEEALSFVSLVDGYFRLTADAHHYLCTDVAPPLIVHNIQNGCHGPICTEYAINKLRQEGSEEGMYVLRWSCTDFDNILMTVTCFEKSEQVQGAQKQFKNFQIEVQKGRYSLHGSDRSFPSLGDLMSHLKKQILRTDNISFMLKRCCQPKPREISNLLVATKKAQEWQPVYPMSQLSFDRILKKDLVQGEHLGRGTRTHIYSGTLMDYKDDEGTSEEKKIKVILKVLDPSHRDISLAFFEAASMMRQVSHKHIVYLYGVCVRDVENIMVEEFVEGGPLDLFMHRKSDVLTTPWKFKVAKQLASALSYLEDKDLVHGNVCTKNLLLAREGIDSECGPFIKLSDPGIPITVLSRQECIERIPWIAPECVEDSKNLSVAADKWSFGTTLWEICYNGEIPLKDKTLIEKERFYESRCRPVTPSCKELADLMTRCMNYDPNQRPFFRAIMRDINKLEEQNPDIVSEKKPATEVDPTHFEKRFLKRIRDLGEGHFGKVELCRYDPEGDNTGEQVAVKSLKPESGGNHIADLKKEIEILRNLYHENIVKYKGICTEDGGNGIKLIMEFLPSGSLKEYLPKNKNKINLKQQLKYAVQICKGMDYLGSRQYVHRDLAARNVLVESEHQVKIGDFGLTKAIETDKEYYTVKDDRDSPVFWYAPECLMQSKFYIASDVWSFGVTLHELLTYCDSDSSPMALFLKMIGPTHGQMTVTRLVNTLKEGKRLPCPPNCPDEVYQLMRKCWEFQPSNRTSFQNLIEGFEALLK
Description: as §1, §2
The reaction was carried out at room temperature for 90 min and the reaction system was 10 ul.
as §3, §4, §5

JAK3 = molecular target: T3, JAK3 (Homo sapiens, UniProt P52333); test: Test for in vitro activity of JAK3 kinase (LANCE Ultra ULight-JAK-1 peptide)
T3 construct: purchased Life technology
T3 sequence (P52333 1-1124): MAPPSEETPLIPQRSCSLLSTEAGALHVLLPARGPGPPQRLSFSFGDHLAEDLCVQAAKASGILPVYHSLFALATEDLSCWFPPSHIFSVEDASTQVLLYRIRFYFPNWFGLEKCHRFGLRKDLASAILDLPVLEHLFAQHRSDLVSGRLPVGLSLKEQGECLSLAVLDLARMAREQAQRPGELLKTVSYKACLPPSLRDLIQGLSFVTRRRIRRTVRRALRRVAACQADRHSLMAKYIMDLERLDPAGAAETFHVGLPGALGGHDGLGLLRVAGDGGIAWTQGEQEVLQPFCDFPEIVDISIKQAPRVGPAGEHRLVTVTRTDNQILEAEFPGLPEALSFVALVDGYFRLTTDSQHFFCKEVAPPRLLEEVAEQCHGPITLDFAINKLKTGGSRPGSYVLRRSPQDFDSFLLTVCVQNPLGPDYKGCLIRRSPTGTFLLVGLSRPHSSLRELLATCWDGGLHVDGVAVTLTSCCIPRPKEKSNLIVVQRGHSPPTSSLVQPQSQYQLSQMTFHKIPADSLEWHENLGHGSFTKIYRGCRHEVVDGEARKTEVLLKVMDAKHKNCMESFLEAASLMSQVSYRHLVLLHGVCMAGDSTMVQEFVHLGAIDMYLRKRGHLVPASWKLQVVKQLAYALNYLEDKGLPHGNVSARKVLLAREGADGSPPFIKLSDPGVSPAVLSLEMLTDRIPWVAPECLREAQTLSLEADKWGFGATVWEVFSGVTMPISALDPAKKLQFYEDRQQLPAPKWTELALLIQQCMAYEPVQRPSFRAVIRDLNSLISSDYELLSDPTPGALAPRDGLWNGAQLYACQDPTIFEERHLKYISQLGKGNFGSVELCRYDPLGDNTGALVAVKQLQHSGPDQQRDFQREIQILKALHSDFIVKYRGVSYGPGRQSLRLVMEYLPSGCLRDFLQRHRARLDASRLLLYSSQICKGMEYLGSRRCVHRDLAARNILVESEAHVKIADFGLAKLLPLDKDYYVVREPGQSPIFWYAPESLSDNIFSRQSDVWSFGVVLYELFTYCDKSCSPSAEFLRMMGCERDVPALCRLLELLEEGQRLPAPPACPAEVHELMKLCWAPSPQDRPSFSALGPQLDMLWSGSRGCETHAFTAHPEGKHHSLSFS
Description: as §1, §2
0.05 nM of JAK3 Protein kinase, 50 nM of LANCE Ultra ULight™-JAK-1(Tyr1023) peptide, 4 uM of ATP, 50 mM of HEPES (pH 7.5), 10 mM of MgCl2, 1 mM of EGTA, 2 mM of DTT, 0.01% BRIJ-35. […] The reaction was carried out at room temperature for 90 min and the reaction system was 10 ul.
as §3, §4, §5

[1] = recombinant human JAK2, 12 uM ATP, 60 min, class symbol
[2] = selectivity ratio JAK3 versus JAK2, class symbol

T1 sequence (O60674 whole entry): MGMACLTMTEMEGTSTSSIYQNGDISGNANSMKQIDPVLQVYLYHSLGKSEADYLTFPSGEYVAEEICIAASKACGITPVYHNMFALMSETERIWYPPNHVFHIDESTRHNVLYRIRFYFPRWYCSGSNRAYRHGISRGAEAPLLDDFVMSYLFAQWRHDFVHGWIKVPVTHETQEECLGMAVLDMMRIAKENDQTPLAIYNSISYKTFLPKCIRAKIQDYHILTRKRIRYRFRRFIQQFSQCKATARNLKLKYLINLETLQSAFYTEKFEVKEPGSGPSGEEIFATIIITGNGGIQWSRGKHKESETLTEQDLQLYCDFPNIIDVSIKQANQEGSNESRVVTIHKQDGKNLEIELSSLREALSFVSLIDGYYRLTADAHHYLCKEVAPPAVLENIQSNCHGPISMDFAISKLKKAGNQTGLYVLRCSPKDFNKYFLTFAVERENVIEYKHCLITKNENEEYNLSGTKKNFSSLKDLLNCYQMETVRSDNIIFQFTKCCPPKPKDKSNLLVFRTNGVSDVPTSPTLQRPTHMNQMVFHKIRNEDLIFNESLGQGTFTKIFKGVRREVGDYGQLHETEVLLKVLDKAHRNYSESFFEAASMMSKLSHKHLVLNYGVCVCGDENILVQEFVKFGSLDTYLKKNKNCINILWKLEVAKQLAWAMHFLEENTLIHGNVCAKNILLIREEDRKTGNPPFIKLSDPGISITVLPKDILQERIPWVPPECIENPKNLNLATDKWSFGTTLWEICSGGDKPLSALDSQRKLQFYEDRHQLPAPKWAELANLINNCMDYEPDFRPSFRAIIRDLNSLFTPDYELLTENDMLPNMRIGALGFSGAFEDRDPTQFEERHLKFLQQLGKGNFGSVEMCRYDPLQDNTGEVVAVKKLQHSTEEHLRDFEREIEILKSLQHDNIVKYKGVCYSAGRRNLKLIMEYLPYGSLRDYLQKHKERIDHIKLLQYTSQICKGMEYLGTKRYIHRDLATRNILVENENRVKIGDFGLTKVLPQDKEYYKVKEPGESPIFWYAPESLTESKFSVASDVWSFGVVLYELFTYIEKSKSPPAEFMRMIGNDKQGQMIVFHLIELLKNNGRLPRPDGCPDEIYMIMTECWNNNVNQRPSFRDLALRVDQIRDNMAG

Row | IC50 (JAK2; [1]) [nM] | JAK1/JAK2 (times) (JAK1) | JAK3/JAK2 (times) (JAK3; [2]) | Molecule | IC50 (JAK2) [nM] | JAK3/JAK2 (times) (JAK3)
1 | 100 to 1000 | F3 (10 < F3 ≤ 25) | F3 (10 < F3 ≤ 25) | CS(=O)(=O)N1CC(CC#N)(n2cc(-c3nccc4nc(NC(=O)CC#N)nn34)cn2)C1 [WX26] |  | 
2 | 100 to 1000 | F1 (1 ≤ F1 ≤ 5) | F3 (10 < F3 ≤ 25) | N#CCC1(n2cc(-c3cccn4nc(NC(=O)C(F)(F)F)nc34)cn2)CN(S(=O)(=O)C2CC2)C1 [WX23] |  | 
3 | < 10 | F1 (1 ≤ F1 ≤ 5) | F4 (25 < F4 ≤ 100) | N#CCC1(n2cc(-c3cccc4nc(NC(=O)C5CC5)nn34)cn2)CN(S(=O)(=O)C2CC2)C1 [WX08, N-(5-(1-(3-(cyanomethyl)-1-(cyclopropylsulfonyl)azetidine-3-yl)-1H-pyrazole-4-yl)-[1,2,4]triazolo[1,5-a]pyridin-2-yl)cyclopropane formamide] |  | 
4 | 100 to 1000 | F2 (5 < F2 ≤ 10) | F3 (10 < F3 ≤ 25) | N#CCC1(n2cc(-c3nccc4nc(NC(=O)C5CC5)nn34)cn2)CN(C(=O)C2CC2)C1 [WX11, N-[5-[1-[3-(cyanomethyl)-1-(cyclopropylcarbonyl)azetidine-3-]pyrazole-4-]-[1,2,4]triazoloe[1,5-c]pyrimidine2-] cyclopropane carboxamide] |  | 
5 | 100 to 1000 | F1 (1 ≤ F1 ≤ 5) | F1 (1 ≤ F1 ≤ 5) | COCC(=O)N1CC(CC#N)(n2cc(-c3nccc4nc(NC(=O)C5CC5)nn34)cn2)C1 [WX10, N-[5-[1-[3-(cyanomethyl)-1-(2-methoxyacetyl)azetidine-3-]pyrazole-4-]-[1,2,4]triazoloe[1,5-c]pyrimidine2-] cyclopropane carboxamide] |  | 
6 | 10 to 100 | F1 (1 ≤ F1 ≤ 5) | F3 (10 < F3 ≤ 25) | N#CCC1(n2cc(-c3nccc4nc(N)nn34)cn2)CN(S(=O)(=O)C(F)(F)F)C1 [WX05, 2-[3-[4-(2-amino-[1,2,4]triazolo[1,5-c]pyrimidin-5-yl)pyrazole-1-yl]-1-(trifluoromethylsulfonyl)cyclobutylamine-3-yl]acetonitrile] |  | 
7 | < 10 | F2 (5 < F2 ≤ 10) | F4 (25 < F4 ≤ 100) | N#CCC1(n2cc(-c3cccc4nc(NC(=O)C5CC5)nn34)cn2)CN(S(=O)(=O)C(F)F)C1 [WX14, N-[5-[1-[3-(cyanomethyl)-1-(difluoromethylsulfonyl)azetidine-3-]pyrazole-4-]-[1,2,4]triazolo[1,5-c]pyridin-2-]cyclopropyl carboxamide] |  | 
8 | 100 to 1000 | F3 (10 < F3 ≤ 25) | F2 (5 < F2 ≤ 10) | N-(5-(1-(3-(cyanomethyl)-1-((methylsulfonyl)azetidine-3-yl)-1H-pyrazole-4-yl)-[1,2,4]triazolo[1,5-c]pyridin-2-yl)-2-methoxyacetamide [WX25] |  | 
9 | < 10 | F1 (1 ≤ F1 ≤ 5) | F4 (25 < F4 ≤ 100) | CS(=O)(=O)N1CC(CC#N)(n2cc(-c3cccc4nc(NC(=O)C5CC5)nn34)cn2)C1 [WX15] |  | 
10 | 10 to 100 | F1 (1 ≤ F1 ≤ 5) | F4 (25 < F4 ≤ 100) | N#CCC1(n2cc(-c3cccc4nc(NC(=O)C5CC5)nn34)cn2)CNC1 [WX00, N-[5-[1-[3-(cyanomethyl)azetidine-3-yl]pyrazole-4-yl]-[1,2,4]triazolo[1,5-a]pyridin-2-yl] cyclopropane carboxamide] |  | 
11 | 100 to 1000 | F2 (5 < F2 ≤ 10) | F3 (10 < F3 ≤ 25) | CCS(=O)(=O)N1CC(CC#N)(n2cc(-c3nccn4nc(NC(=O)C5CC5)nc34)cn2)C1 [WX31, N-[8-[1-[3-(cyanomethyl)-1-ethylsulfonylazetidin-3-yl]pyrazole-4-yl)-[1,2,4]triazolo[1,5-a]pyrazine-2-yl] cyclopropanecarboxamide] |  | 
12 | 100 to 1000 | F2 (5 < F2 ≤ 10) | F3 (10 < F3 ≤ 25) | N#CCC1(n2cc(-c3nccc4nc(NC(=O)C5CC(F)(F)C5)nn34)cn2)CN(S(=O)(=O)C(F)(F)F)C1 [WX32, N-[5-[1-[3-(cyanomethyl)-1-(trifluoromethylsulfonyl)azetidin-3-yl]pyrazole-4-yl]-[1,2,4]triazolo[1,5-c]pyrimidin-2-yl]-3,3-difluoro-cyclobutanecarboxamide] |  | 
13 | 10 to 100 | F1 (1 ≤ F1 ≤ 5) | F3 (10 < F3 ≤ 25) | CN(C)Cc1cc(C(=O)N2CCC(N3CC(CC#N)(n4cc(-c5cccc6nc(NC(=O)C7CC7)nn56)cn4)C3)CC2)nc(C(F)(F)F)n1 [WX33] |  | 
14 | 100 to 1000 | F1 (1 ≤ F1 ≤ 5) | F3 (10 < F3 ≤ 25) | CCS(=O)(=O)N1CC(CC#N)(n2cc(-c3cccn4nc(NC(=O)C(F)(F)F)nc34)cn2)C1 [WX22, N-(8-(1-(3-(cyanomethyl)-1-(ethylsulfonyl)azetidine-3-yl)-1H-pyrazole-4-yl)-[1,2,4]triazolo[1,5-a]pyridin-2-yl)-2,2,2-trifluoroacetamide] |  | 
15 | < 10 | F1 (1 ≤ F1 ≤ 5) | F3 (10 < F3 ≤ 25) | N#CCC1(n2cc(-c3cccc4nc(N)nn34)cn2)CN(S(=O)(=O)C(F)(F)F)C1 [WX18] |  | 
16 | 10 to 100 | F2 (5 < F2 ≤ 10) | F3 (10 < F3 ≤ 25) | N#CCC1(n2cc(-c3nccc4nc(NC(=O)C5CC5)nn34)cn2)CN(S(=O)(=O)C2CC2)C1 [WX03, N-[5-[1-[3-(cyanomethyl)-1-cyclopropylsulfonyl-azetidine-3-yl]pyrazole-4-yl]-[1,2,4]triazolo[1,5-c]pyrimidin-2-yl]cyclopropanecarboxamide] |  | 

Row | Molecule | IC50 (JAK2; [1]) [nM] | JAK1/JAK2 (times) (JAK1) | JAK3/JAK2 (times) (JAK3; [2]) | IC50 (JAK2) [nM] | JAK3/JAK2 (times) (JAK3)
17 | N#CCC1(n2cc(-c3nccc4nc(NC(=O)C5CC(O)C5)nn34)cn2)CN(S(=O)(=O)C(F)(F)F)C1 (stereo not drawn) [WX07, N-[5-[1-[3-(cyanomethyl)-1-(trifluoromethylsulfonyl)cyclobutylamine-3-yl]pyrazole-4-yl]-[1,2,4]triazolo[1,5-c]pyrimidin-2-yl]-3-hydroxy-cyclobutane formamide] | 10 to 100 | F2 (5 < F2 ≤ 10) | F4 (25 < F4 ≤ 100) |  | 
18 | CS(=O)(=O)N1CC(CC#N)(n2cc(-c3cccc4nc(N)sc34)cn2)C1 [WX27, 2-(3-(4-(2-aminobenzo[d]thiazole-7-yl)-1H-pyrazole-1-yl)-(methylsulfonyl)azetidine-3-yl) methyl cyanide] |  | F3 (10 < F3 ≤ 25) |  | < 10 | F2 (key: 1 ≤ F1 ≤ 5; 5 < F2 ≤ 10; 10 < F3 ≤ 25; 25 < F4 ≤ 100)
19 | CS(=O)(=O)N1CC(CC#N)(n2cc(-c3cccc4nc(N)nn34)cn2)C1 [WX19, 2-(3-(4-(2-amino-[1,2,4]triazolo[1,5-a]pyridinyl)-1H-pyrazolyl)-1-(methylsulfonyl)cyclobutane)acetonitrile] | 10 to 100 | F1 (1 ≤ F1 ≤ 5) | F3 (10 < F3 ≤ 25) |  | 
20 | N#CCC1(n2cc(-c3cccc4ncnn34)cn2)CN(S(=O)(=O)C(F)(F)F)C1 [WX17, 2-[3-[4-([1,2,4]triazolo[1,5-a]pyridin-5-)pyrazole-1-]-1-(trifluoromethylsulfonyl)azetidine-3-]acetonitrile] | 10 to 100 | F1 (1 ≤ F1 ≤ 5) | F3 (10 < F3 ≤ 25) |  | 
